System: 743489-274-T-PDC complex spheroid viability
Assay: Anticancer human tumor 743489-274-T-PDC patient-derived renal cell carcinoma cell line growth inhibition
Details: for IC50: curve of first compound; for viability, T/C: stronger effect = lower value
Method in brief: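 Complex spheroids of tumor cells with HUVEC and human MSCs, exposed to iadademstat combined with other agents. Each agent tested in half-log steps from near clinical Cmax (else 10 microM top), DMSO ≤0.25%.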

[1] = second compound 0.1 µM, first compound 0.00316 µM
[2] = second compound 0.1 µM, first compound 0.01 µM
[3] = second compound 0.1 µM, first compound 0.0316 µM
[4] = second compound 0.1 µM, first compound 0.1 µM
[5] = second compound 0.1 µM, first compound 0.316 µM
[6] = second compound 0.1 µM, first compound 1 µM
[7] = second compound 0.316 µM, first compound 0.00316 µM
[8] = second compound 0.316 µM, first compound 0.01 µM
[9] = second compound 0.316 µM, first compound 0.0316 µM
[10] = second compound 0.316 µM, first compound 0.1 µM
[11] = second compound 0.316 µM, first compound 0.316 µM
[12] = second compound 0.316 µM, first compound 1 µM
[13] = second compound 1 µM, first compound 0.00316 µM
[14] = second compound 1 µM, first compound 0.01 µM
[15] = second compound 1 µM, first compound 0.0316 µM
[16] = second compound 1 µM, first compound 0.1 µM
[17] = second compound 1 µM, first compound 0.316 µM
[18] = second compound 1 µM, first compound 1 µM
[19] = second compound 3.16 µM, first compound 0.00316 µM
[20] = second compound 3.16 µM, first compound 0.01 µM
[21] = second compound 3.16 µM, first compound 0.0316 µM
[22] = second compound 3.16 µM, first compound 0.1 µM
[23] = second compound 3.16 µM, first compound 0.316 µM
[24] = second compound 3.16 µM, first compound 1 µM
[25] = second compound 10 µM, first compound 0.00316 µM
[26] = second compound 10 µM, first compound 0.01 µM
[27] = second compound 10 µM, first compound 0.0316 µM
[28] = second compound 10 µM, first compound 0.1 µM
[29] = second compound 10 µM, first compound 0.316 µM
[30] = second compound 10 µM, first compound 1 µM
[31] = second compound 0.1 µM, first compound 0.00949 µM
[32] = second compound 0.1 µM, first compound 0.03 µM
[33] = second compound 0.1 µM, first compound 0.0949 µM
[34] = second compound 0.1 µM, first compound 0.3 µM
[35] = second compound 0.316 µM, first compound 0.00949 µM
[36] = second compound 0.316 µM, first compound 0.03 µM
[37] = second compound 0.316 µM, first compound 0.0949 µM
[38] = second compound 0.316 µM, first compound 0.3 µM
[39] = second compound 1 µM, first compound 0.00949 µM
[40] = second compound 1 µM, first compound 0.03 µM
[41] = second compound 1 µM, first compound 0.0949 µM
[42] = second compound 1 µM, first compound 0.3 µM
[43] = second compound 3.16 µM, first compound 0.00949 µM
[44] = second compound 3.16 µM, first compound 0.03 µM
[45] = second compound 3.16 µM, first compound 0.0949 µM
[46] = second compound 3.16 µM, first compound 0.3 µM
[47] = second compound 10 µM, first compound 0.00949 µM
[48] = second compound 10 µM, first compound 0.03 µM
[49] = second compound 10 µM, first compound 0.0949 µM
[50] = second compound 10 µM, first compound 0.3 µM
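Further: spheroids exposed to compounds for 7 days before readout.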
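Wherever viability, T/C is given: 100% = DMSO vehicle control wells.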

## CC1COCCN1c1cc(-c2ccnn2C)c2ccnc(-c3ccn[nH]3)c2n1 (stereo not given) + NC1CC1c1ccc(-c2cccc(O)c2)cc1
Second compound 0.1 µM
  IC50: 448 nM
Second compound 0.316 µM
  IC50: > 1000 nM
Second compound 1 µM
  IC50: 716 nM
Second compound 3.16 µM
  IC50: 540 nM
Second compound 10 µM
  IC50: 518 nM
[1]
  viability, T/C: 109%
[2]
  viability, T/C: 88%
[3]
  viability, T/C: 85.2%
[4]
  viability, T/C: 62.9%
[5]
  viability, T/C: 51.2%
[6]
  viability, T/C: 44.3%
[7]
  viability, T/C: 111%
[8]
  viability, T/C: 104%
[9]
  viability, T/C: 85.5%
[10]
  viability, T/C: 65.5%
[11]
  viability, T/C: 64.5%
[12]
  viability, T/C: 51.9%
[13]
  viability, T/C: 98.2%
[14]
  viability, T/C: 103%
[15]
  viability, T/C: 82.5%
[16]
  viability, T/C: 68.9%
[17]
  viability, T/C: 64.7%
[18]
  viability, T/C: 44.5%
[19]
  viability, T/C: 101%
[20]
  viability, T/C: 90.6%
[21]
  viability, T/C: 83.8%
[22]
  viability, T/C: 75.6%
[23]
  viability, T/C: 55.5%
[24]
  viability, T/C: 41.5%
[25]
  viability, T/C: 90.8%
[26]
  viability, T/C: 98.1%
[27]
  viability, T/C: 80%
[28]
  viability, T/C: 75%
[29]
  viability, T/C: 53.7%
[30]
  viability, T/C: 43.6%

## CC1COCCN1c1cc(C2(S(C)(=N)=O)CC2)nc(-c2ccnc3[nH]ccc23)n1 (stereo not given) + NC1CC1c1ccc(-c2cccc(O)c2)cc1
Second compound 0.1 µM
  IC50: > 10000 nM
Second compound 0.316 µM
  IC50: > 10000 nM
Second compound 1 µM
  IC50: > 10000 nM
Second compound 3.16 µM
  IC50: > 10000 nM
Second compound 10 µM
  IC50: > 10000 nM
[3]
  viability, T/C: 94.6%
[4]
  viability, T/C: 103%
[5]
  viability, T/C: 92.3%
[6]
  viability, T/C: 94.6%
Second compound 0.1 µM, first compound 3.16 µM
  viability, T/C: 74.4%
Second compound 0.1 µM, first compound 10 µM
  viability, T/C: 68.3%
[9]
  viability, T/C: 99.5%
[10]
  viability, T/C: 96.6%
[11]
  viability, T/C: 99.6%
[12]
  viability, T/C: 101%
Second compound 0.316 µM, first compound 3.16 µM
  viability, T/C: 90.1%
Second compound 0.316 µM, first compound 10 µM
  viability, T/C: 73.3%
[15]
  viability, T/C: 89.6%
[16]
  viability, T/C: 101%
[17]
  viability, T/C: 104%
[18]
  viability, T/C: 95.1%
Second compound 1 µM, first compound 3.16 µM
  viability, T/C: 76.4%
Second compound 1 µM, first compound 10 µM
  viability, T/C: 70.8%
[21]
  viability, T/C: 107%
[22]
  viability, T/C: 114%
[23]
  viability, T/C: 97.4%
[24]
  viability, T/C: 102%
Second compound 3.16 µM, first compound 3.16 µM
  viability, T/C: 75.3%
Second compound 3.16 µM, first compound 10 µM
  viability, T/C: 66.6%
[27]
  viability, T/C: 114%
[28]
  viability, T/C: 102%
[29]
  viability, T/C: 104%
[30]
  viability, T/C: 110%
Second compound 10 µM, first compound 3.16 µM
  viability, T/C: 74.7%
Second compound 10 µM, first compound 10 µM
  viability, T/C: 70.8%

## CCN(c1cc(-c2ccc(CN3CCOCC3)cc2)cc(C(=O)NCc2c(C)cc(C)[nH]c2=O)c1C)C1CCOCC1 + NC1CC1c1ccc(-c2cccc(O)c2)cc1
Second compound 0.1 µM
  IC50: > 3000 nM
Second compound 0.316 µM
  IC50: > 3000 nM
Second compound 1 µM
  IC50: > 3000 nM
Second compound 3.16 µM
  IC50: > 3000 nM
Second compound 10 µM
  IC50: > 3000 nM
[31]
  viability, T/C: 104%
[32]
  viability, T/C: 110%
[33]
  viability, T/C: 95.6%
[34]
  viability, T/C: 94.2%
Second compound 0.1 µM, first compound 0.949 µM
  viability, T/C: 96.1%
Second compound 0.1 µM, first compound 3 µM
  viability, T/C: 102%
[35]
  viability, T/C: 111%
[36]
  viability, T/C: 98.3%
[37]
  viability, T/C: 102%
[38]
  viability, T/C: 96.3%
Second compound 0.316 µM, first compound 0.949 µM
  viability, T/C: 97.2%
Second compound 0.316 µM, first compound 3 µM
  viability, T/C: 111%
[39]
  viability, T/C: 104%
[40]
  viability, T/C: 107%
[41]
  viability, T/C: 103%
[42]
  viability, T/C: 102%
Second compound 1 µM, first compound 0.949 µM
  viability, T/C: 97.2%
Second compound 1 µM, first compound 3 µM
  viability, T/C: 104%
[43]
  viability, T/C: 96.6%
[44]
  viability, T/C: 104%
[45]
  viability, T/C: 92.8%
[46]
  viability, T/C: 99.7%
Second compound 3.16 µM, first compound 0.949 µM
  viability, T/C: 108%
Second compound 3.16 µM, first compound 3 µM
  viability, T/C: 102%
[47]
  viability, T/C: 101%
[48]
  viability, T/C: 100%
[49]
  viability, T/C: 106%
[50]
  viability, T/C: 101%
Second compound 10 µM, first compound 0.949 µM
  viability, T/C: 106%
Second compound 10 µM, first compound 3 µM
  viability, T/C: 104%

## Nc1ncn(C2CC(O)C(CO)S2)c(=O)n1 (stereo not given) + NC1CC1c1ccc(-c2cccc(O)c2)cc1
Second compound 0.1 µM
  IC50: > 300 nM
Second compound 0.316 µM
  IC50: > 300 nM
Second compound 1 µM
  IC50: > 300 nM
Second compound 3.16 µM
  IC50: > 300 nM
Second compound 10 µM
  IC50: > 300 nM
Second compound 0.1 µM, first compound 0.000949 µM
  viability, T/C: 102%
Second compound 0.1 µM, first compound 0.003 µM
  viability, T/C: 94.5%
[31]
  viability, T/C: 105%
[32]
  viability, T/C: 85.3%
[33]
  viability, T/C: 76.2%
[34]
  viability, T/C: 74.8%
Second compound 0.316 µM, first compound 0.000949 µM
  viability, T/C: 95.4%
Second compound 0.316 µM, first compound 0.003 µM
  viability, T/C: 102%
[35]
  viability, T/C: 90.6%
[36]
  viability, T/C: 83.3%
[37]
  viability, T/C: 74.3%
[38]
  viability, T/C: 71.1%
Second compound 1 µM, first compound 0.000949 µM
  viability, T/C: 94.2%
Second compound 1 µM, first compound 0.003 µM
  viability, T/C: 89.6%
[39]
  viability, T/C: 81.5%
[40]
  viability, T/C: 77.4%
[41]
  viability, T/C: 73.5%
[42]
  viability, T/C: 73.2%
Second compound 3.16 µM, first compound 0.000949 µM
  viability, T/C: 96.5%
Second compound 3.16 µM, first compound 0.003 µM
  viability, T/C: 85.8%
[43]
  viability, T/C: 83%
[44]
  viability, T/C: 78.5%
[45]
  viability, T/C: 75.1%
[46]
  viability, T/C: 78%
Second compound 10 µM, first compound 0.000949 µM
  viability, T/C: 92.3%
Second compound 10 µM, first compound 0.003 µM
  viability, T/C: 85.1%
[47]
  viability, T/C: 86.9%
[48]
  viability, T/C: 89%
[49]
  viability, T/C: 67.8%
[50]
  viability, T/C: 64%

## O=C(C=Cn1cnc(-c2cc(C(F)(F)F)cc(C(F)(F)F)c2)n1)NNc1cnccn1 + NC1CC1c1ccc(-c2cccc(O)c2)cc1
Second compound 0.1 µM
  IC50: > 1000 nM
Second compound 0.316 µM
  IC50: > 1000 nM
Second compound 1 µM
  IC50: > 1000 nM
Second compound 3.16 µM
  IC50: > 1000 nM
Second compound 10 µM
  IC50: > 1000 nM
[1]
  viability, T/C: 97.6%
[2]
  viability, T/C: 103%
[3]
  viability, T/C: 113%
[4]
  viability, T/C: 85.8%
[5]
  viability, T/C: 97.9%
[6]
  viability, T/C: 86.2%
[7]
  viability, T/C: 102%
[8]
  viability, T/C: 99.8%
[9]
  viability, T/C: 108%
[10]
  viability, T/C: 99.6%
[11]
  viability, T/C: 76.4%
[12]
  viability, T/C: 74.6%
[13]
  viability, T/C: 99.1%
[14]
  viability, T/C: 103%
[15]
  viability, T/C: 118%
[16]
  viability, T/C: 88%
[17]
  viability, T/C: 89.4%
[18]
  viability, T/C: 67.4%
[19]
  viability, T/C: 98.7%
[20]
  viability, T/C: 105%
[21]
  viability, T/C: 119%
[22]
  viability, T/C: 91.3%
[23]
  viability, T/C: 74.6%
[24]
  viability, T/C: 69.5%
[25]
  viability, T/C: 96.2%
[26]
  viability, T/C: 101%
[27]
  viability, T/C: 102%
[28]
  viability, T/C: 98.6%
[29]
  viability, T/C: 86.1%
[30]
  viability, T/C: 57.4%
